Experimental data taken from ChEMBL document CHEMBL1124646, “Sulfur-containing 1,3-dialkylxanthine derivatives as selective antagonists at A1-adenosine receptors” (J Med Chem, 1989).

How the values were obtained:
[1] = target: T1, Adenosine A2 receptor (Rattus norvegicus, UniProt P29276+P30543)
Description: Inhibition of binding of [3H]5'-(N-ethylcarbamoyl)-adenosine to adenosine A2 receptor in rat striatal membranes

[2] = target: T1, Adenosine A2 receptor; type: cell membranes, Membrane
[3] = target: Adenosine receptors; A1 & A2 (Rattus norvegicus) (UniProt P29276+P25099+P30543); assay: Inhibitory selectivity for A2 receptor in rat striatal membranes and A1 receptor in rat cortical membranes; type: cell membranes; settings: Striatum, Membrane
[4] = target: T2, Adenosine receptor A1 (Rattus norvegicus, UniProt P25099); assay: Inhibition of binding of 1 nM [3H]N-6-(phenylisopropyl)adenosine to adenosine A1 receptor in rat cortical membranes; type: cell membranes, Membrane
T2 sequence (P25099 whole entry): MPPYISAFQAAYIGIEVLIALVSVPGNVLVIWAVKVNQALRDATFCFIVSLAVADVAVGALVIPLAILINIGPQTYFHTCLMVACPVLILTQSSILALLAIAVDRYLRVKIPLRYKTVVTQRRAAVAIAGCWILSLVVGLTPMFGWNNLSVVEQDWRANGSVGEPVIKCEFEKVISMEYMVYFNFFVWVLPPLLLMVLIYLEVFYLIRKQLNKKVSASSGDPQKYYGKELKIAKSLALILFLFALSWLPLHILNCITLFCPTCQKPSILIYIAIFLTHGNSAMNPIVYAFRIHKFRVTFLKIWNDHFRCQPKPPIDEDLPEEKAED

[5] = target: T2, Adenosine receptor A1; assay: Inhibition of 1 nM [3H]N-6-(phenylisopropyl)adenosine binding to adenosine A1 receptors in rat cortical membranes; type: cell membranes, Membrane
[6] = target: T2, Adenosine receptor A1; assay: Inhibition of 1 nM [3H]N-6-(phenylisopropyl)adenosine binding to A1 receptors in rat cortical membranes; type: cell membranes, Membrane
[7] = target: Adenosine receptors; A1 & A2 (Rattus norvegicus, UniProt P29276+P25099+P30543); assay: Inhibitory selectivity for A1 receptor in rat striatal membranes and Adenosine A1 receptor in rat cortical membranes; type: cell membranes, Striatum, Membrane
[8] = target: Adenosine receptor A1 (Rattus norvegicus); assay: Inhibitory selectivity for A1 receptor in rat striatal membranes and Adenosine A1 receptor in rat cortical membranes

`CCn1c(=S)c2nc(-c3ccccc3)[nH]c2n(CC)c1=O` gave a Ki [1] of 3510 nM.

Work on `CCCn1c(=O)c2nc(-c3ccc(OCC(=O)NCCN(C)C)cc3)[nH]c2n(CCC)c1=S` yielded a Ki [1] of 27.9 nM.

Compound `CCCn1c(=O)c2nc(-c3ccc(OCC(=O)OCC)cc3)[nH]c2n(CCC)c1=O` has a Ki [1] of over 5000 nM.

`CCCn1c(=S)c2nc(C3CCCC3)[nH]c2n(CCC)c1=S` gave a Ki [2] of 2780 nM and a Ratio [3] of 572.

Work on `Cn1c(=S)c2nc(C3CCCC3)[nH]c2n(C)c1=O` yielded a Ki [2] of 8980 nM and a Ratio [3] of 44.4.

`Cn1c(=S)c2nc(-c3ccccc3)[nH]c2n(C)c1=O` was tested, and the Ki [1] was 11300 nM.

In the case of `CCCn1c(=O)c2nc(-c3ccccc3)[nH]c2n(CCC)c1=S`, the Ki [4] is reported as 16.1 nM and the Ki [1] is reported as 422 nM.

`CCCn1c(=O)c2nc(-c3cccs3)[nH]c2n(CCC)c1=O` gave a Ki [1] of 381 nM.

Work on `CCCn1c(=O)c2nc(-c3ccc(OCC(=O)NCCNC(=O)C(N)CCCCNC(=O)OCc4ccccc4)cc3)[nH]c2n(CCC)c1=S.O=C(O)C(F)(F)F` (stereo not drawn) yielded a Ki [2] of 322 nM, a Ki [5] of 6.8 nM and a Ratio [3] of 36.

Work on `CCCn1c(=O)c2[nH]c(-c3ccc(OCC(=O)NCCNC(=O)C(CCCCNC(=O)OCc4ccccc4)NC(=O)OC(C)(C)C)cc3)nc2n(CCC)c1=O` (stereo not drawn) yielded a Ki [6] of 12 nM.

For `Br.Br.CCCn1c(=O)c2nc(-c3ccc(OCC(=O)NCCNC(=O)C(N)CCCCN)cc3)[nH]c2n(CCC)c1=O` (stereo not drawn), the Ki [4] was 0.87 nM and the Ki [1] was 180 nM.

`CCCn1c(=O)c2nc(-c3ccc(OCC(=O)NCCN)cc3)[nH]c2n(CCC)c1=S` gave a Ki [1] of 26.3 nM.

With `Cn1c(=O)c2nc(-c3ccsc3)[nH]c2n(C)c1=O` the Ki [1] was 841 nM.

`CCCn1c(=O)c2nc(-c3ccc(OCC(=O)NCCNC(=O)Cc4cccs4)cc3)[nH]c2n(CCC)c1=O` showed a Ki [1] of 147 nM.

`CCCn1c(=O)c2nc(-c3ccsc3)[nH]c2n(CCC)c1=O` showed a Ki [1] of 121 nM.

In the case of `Br.Br.CCCn1c(=O)c2nc(-c3ccc(OCC(=O)NCCNC(=O)C(N)CCCCN)cc3)[nH]c2n(CCC)c1=S` (stereo not drawn), the Ki [4] is reported as 13 nM and the Ki [1] is reported as 46.8 nM.

`Cn1c(=O)c2nc(-c3cccs3)[nH]c2n(C)c1=S` showed a Ki [1] of 1740 nM.

Work on `Cn1c(=O)c2nc(-c3ccco3)[nH]c2n(C)c1=S` yielded a Ki [4] of 182 nM and a Ki [1] of 4450 nM.

`CCCn1c(=O)c2[nH]c(C3CCCC3)nc2n(CCC)c1=S` showed a Ki [1] of 314 nM.

For `CCCn1c(=S)c2nc(C3CCCC3)[nH]c2n(CCC)c1=O`, the Ki [1] was 3360 nM.

For `CCCn1c(=O)c2[nH]c(-c3ccc(OCC(=O)NCCNC)cc3)nc2n(CCC)c1=O`, the Ki [4] was 15.1 nM.

`CCCn1c(=O)c2nc(-c3ccc(OCC(=O)NCCNC(=O)CCCCCCC(=O)NCc4cccs4)cc3)[nH]c2n(CCC)c1=O` was tested, and the Ki [2] was 630 nM and the Ratio [3] was 85.

Work on `CCCn1c(=O)c2nc(-c3ccco3)[nH]c2n(CCC)c1=S` yielded a Ki [4] of 32 nM and a Ki [1] of 594 nM.

Work on `CCCn1c(=O)c2nc(-c3ccc(OCC(=O)NCCNC(=O)C(CCCCNC(=O)OCc4ccccc4)NC(=O)OC(C)(C)C)cc3)[nH]c2n(CCC)c1=S` (stereo not drawn) yielded a Ki [4] of 84 nM and a Ki [1] of 870 nM.

Work on `CCCn1c(=O)c2nc(-c3ccco3)[nH]c2n(CCC)c1=O` yielded a Ki [4] of 37 nM and a Ki [1] of 640 nM.

Work on `Cn1c(=S)c2nc(C3CCCC3)[nH]c2n(C)c1=S` yielded a Ki [2] of 11500 nM and a Ratio [3] of 285.

`CCCn1c(=O)c2nc(-c3cccs3)[nH]c2n(CCC)c1=S` was tested, and the Ki [1] was over 5000 nM.

`Cn1c(=O)c2nc(-c3cccs3)[nH]c2n(C)c1=O` was tested, and the Ki [1] was 1630 nM.

`CCCn1c(=O)c2nc(-c3ccc(OCC(=O)NCCNC(=O)C(N)CCCCNC(=O)OCc4ccccc4)cc3)[nH]c2n(CCC)c1=O.O=C(O)C(F)(F)F` (stereo not drawn) gave a Ki [2] of 191 nM, a Ki [5] of 6.4 nM and a Ratio [3] of 30.

For `CCCn1c(=O)c2nc(-c3ccc(OCC(=O)O)cc3)[nH]c2n(CCC)c1=S`, the Ki [1] was 315 nM.

`Cn1c(=O)c2nc(-c3ccoc3)[nH]c2n(C)c1=O` showed a Ki [4] of 72.4 nM and a Ki [1] of 984 nM.

For `CCCn1c(=O)c2nc(-c3ccc(OCC(=O)OCC)cc3)[nH]c2n(CCC)c1=S`, the Ki [1] was over 5000 nM.

Work on `CCCn1c(=O)c2nc(-c3ccc(OCC(=O)NCCNC(=O)C(N)Cc4cccs4)cc3)[nH]c2n(CCC)c1=O.O=C(O)C(F)(F)F` (stereo not drawn) yielded a Ki [7] of 1.3 nM.

`CCCn1c(=O)c2nc(-c3ccc(OCC(=O)NCCNC(=O)Cc4ccc(I)s4)cc3)[nH]c2n(CCC)c1=O` was tested, and the Ki [2] was 116 nM and the Ratio [3] was 10.3.

Work on `CCCn1c(=O)c2nc(-c3ccc(OCC(=O)NCCN(C)C)cc3)[nH]c2n(CCC)c1=O` yielded a Ki [4] of 2.8 nM and a Ki [1] of 5.03 nM.

`CCCn1c(=O)c2nc(-c3ccc(OCC(=O)N(C)CCN(C)C)cc3)[nH]c2n(CCC)c1=S` was tested, and the Ki [1] was 24.5 nM.

`CCCn1c(=O)c2nc(-c3ccc(OCC(=O)NCCNC(=O)CCCCCCC(=O)ON4C(=O)CCC4=O)cc3)[nH]c2n(CCC)c1=S` was tested, and the Ki [8] was 33.5 nM.

Compound `CCCn1c(=O)c2[nH]c(-c3ccc(OCC(=O)NCCNC(=O)[C@@H](Cc4cccs4)NC(=O)OC(C)(C)C)cc3)nc2n(CCC)c1=O` has a Ki [6] of 17 nM.

Compound `Cn1c(=O)c2nc(-c3ccccc3)[nH]c2n(C)c1=S` has a Ki [4] of 38 nM and a Ki [1] of over 7000 nM.

`Cn1c(=O)c2nc(-c3ccco3)[nH]c2n(C)c1=O` showed a Ki [4] of 350 nM and a Ki [1] of 2780 nM.

`Cn1c(=O)c2nc(C3CCCC3)[nH]c2n(C)c1=S` showed a Ki [2] of 1390 nM, a Ki [5] of 10.2 nM and a Ratio [3] of 136.
